Laboratory results as given in ChEMBL document CHEMBL5150039 (Bioorg Med Chem, 2022).

Columns and labels:
[1] = biological target: T1, Solute carrier family 22 member 12 (Homo sapiens, UniProt Q96S37); details: HEK293, human, 8 min, read-out: INH
T1 sequence (Q96S37 whole entry): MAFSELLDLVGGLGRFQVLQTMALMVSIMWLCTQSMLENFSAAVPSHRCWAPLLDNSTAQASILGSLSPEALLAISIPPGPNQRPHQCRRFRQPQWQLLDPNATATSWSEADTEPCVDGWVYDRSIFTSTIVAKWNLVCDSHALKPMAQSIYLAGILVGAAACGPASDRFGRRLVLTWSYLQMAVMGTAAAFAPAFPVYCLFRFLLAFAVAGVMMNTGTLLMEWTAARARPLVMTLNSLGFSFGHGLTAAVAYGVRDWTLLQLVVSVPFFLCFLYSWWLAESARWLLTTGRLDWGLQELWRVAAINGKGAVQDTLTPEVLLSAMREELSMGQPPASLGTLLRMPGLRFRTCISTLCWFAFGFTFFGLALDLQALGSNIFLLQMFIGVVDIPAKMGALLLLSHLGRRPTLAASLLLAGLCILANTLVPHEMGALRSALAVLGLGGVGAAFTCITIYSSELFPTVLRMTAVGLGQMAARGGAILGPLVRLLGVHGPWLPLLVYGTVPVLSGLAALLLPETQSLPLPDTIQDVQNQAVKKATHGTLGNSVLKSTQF
Description: Inhibition of URAT1 in human HEK293 cells assessed as inhibition of uric acid uptake at 1000 nM incubated for 8 mins by Microbeta scintillation counting analysis

[2] = biological target: T1, Solute carrier family 22 member 12; details: HEK293, human, 8 min, read-out: INH; remark: listed apart in the source
Description: Inhibition of URAT1 in human HEK293 cells assessed as inhibition of uric acid uptake at 100 nM incubated for 8 mins by Microbeta scintillation counting analysis

[3] = biological target: T1, Solute carrier family 22 member 12; details: HEK293, human, 8 min, read-out: INH; remark: listed apart in the source
[4] = biological target: T2, Bile acid receptor (Homo sapiens, UniProt Q96RI1); assay: Agonist activity at FXR (unknown origin) expressed in human HepG2 cells co-transfected with human RXR incubated for 24 hrs by cell-based luciferase transactivation assay
T2 sequence (Q96RI1 whole entry): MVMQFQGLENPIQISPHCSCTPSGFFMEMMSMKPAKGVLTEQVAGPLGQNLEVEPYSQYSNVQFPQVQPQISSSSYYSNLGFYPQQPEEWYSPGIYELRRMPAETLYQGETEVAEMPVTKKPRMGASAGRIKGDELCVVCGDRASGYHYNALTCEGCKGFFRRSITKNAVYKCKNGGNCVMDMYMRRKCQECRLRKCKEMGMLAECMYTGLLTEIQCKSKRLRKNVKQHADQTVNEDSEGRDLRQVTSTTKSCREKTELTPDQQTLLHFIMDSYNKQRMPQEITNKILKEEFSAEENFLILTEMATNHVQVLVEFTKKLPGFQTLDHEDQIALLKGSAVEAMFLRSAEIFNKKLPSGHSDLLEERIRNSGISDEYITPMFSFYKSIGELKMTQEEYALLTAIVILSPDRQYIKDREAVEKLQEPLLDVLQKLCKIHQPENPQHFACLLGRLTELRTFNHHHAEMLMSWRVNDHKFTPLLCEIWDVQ

SMILES | inhibition at 1 µM [1] [%] | inhibition at 0.1 µM [2] [%] | inhibition at 0.3 µM [3] [%] | EC50 [4] [µM]
CCc1oc2ccccc2c1C(=O)c1cc(Br)c(O)c(Br)c1 [BENZBROMARONE] | 72 | 12 | 31 | 
CCc1oc2ccccc2c1C(=O)c1cc(Br)c(OCc2cccc(OCC(=O)O)c2)c(Br)c1 | 31 | 3 | 18 | 17.8
CCc1oc2ccccc2c1C(=O)c1ccc(OCc2cccc(C(=O)O)c2)cc1 | 12 | 1 | 3 | 15.6
CCc1oc2ccccc2c1C(=O)c1cc(Br)c(OCCCC(=O)O)c(Br)c1 | 45 | 6 | 23 | 
CCc1oc2ccccc2c1C(=O)c1cc(Br)c(OCc2ccc(C(=O)O)cc2)c(Br)c1 | 23 | 1 | 8 | 10.3
